Assays:
[1] = target: SARS-CoV-2 3CL-protease (Severe acute respiratory syndrome coronavirus 2 (2019-nCoV) (SARS-CoV-2), UniProt P0DTD1); test: SARS-CoV-2 3C-Like (3CL) Protease Fluorescence Assay (FRET); assay type: biochemical
[2] = tested on: 229E human corona virus (hCoV); test: 229E Live Virus Assay (MRC-5 cells, CPE, ATPlite readout); assay type: cell-based, hCoV-229E; details: Human coronavirus 229E, MRC5, 144 h, read-out: 229E EC50

CN(C(=O)[C@H](CC1CC1)NC(=O)C(F)(F)F)[C@@H](CC(C)(C)C)C(=O)N1C[C@]2(C[C@H]1C#N)C(=O)Nc1ccccc12 [Example 75]
IC50 [1]: < 0.1 µM | EC50 [2]: < 0.1 µM

CN(C(=O)[C@H](CC1CC1)NC(=O)C1CC1)[C@@H](CC(C)(C)C)C(=O)N1C[C@]2(C[C@H]1C#N)C(=O)Nc1ccccc12 [Example 76]
IC50 [1]: < 0.1 µM | EC50 [2]: < 0.1 µM

[2H]C([2H])([2H])N(C(=O)[C@H](CC1CC1)NC(=O)C1COC1)[C@@H](Cc1ccc(F)cc1)C(=O)N1C[C@]2(C[C@H]1C#N)C(=O)Nc1ccccc12 [Example 77]
IC50 [1]: < 0.1 µM | EC50 [2]: 0.1 to 1 µM

CC(=O)N[C@@H](CC1CC1)C(=O)N(C)[C@@H](CC(C)(C)C)C(=O)N1C[C@]2(C[C@H]1C#N)C(=O)Nc1ccccc12 [Example 78]
IC50 [1]: < 0.1 µM | EC50 [2]: < 0.1 µM

CC(C)C(=O)N[C@@H](CC1CC1)C(=O)N(C)[C@@H](CC(C)(C)C)C(=O)N1C[C@]2(C[C@H]1C#N)C(=O)Nc1ccccc12 [Example 80]
IC50 [1]: < 0.1 µM | EC50 [2]: < 0.1 µM

CN(C(=O)[C@H](CC1CC1)NS(C)(=O)=O)[C@@H](CC(C)(C)C)C(=O)N1C[C@]2(C[C@H]1C#N)C(=O)Nc1ccccc12 [Example 81]
IC50 [1]: < 0.1 µM | EC50 [2]: < 0.1 µM

CN(C(=O)[C@H](CC1CC1)NS(=O)(=O)C1CC1)[C@@H](CC(C)(C)C)C(=O)N1C[C@]2(C[C@H]1C#N)C(=O)Nc1ccccc12 [Example 82]
IC50 [1]: < 0.1 µM | EC50 [2]: < 0.1 µM

CN(C(=O)[C@H](CC1CC1)NC(=O)N1CCOCC1)[C@@H](CC(C)(C)C)C(=O)N1C[C@]2(C[C@H]1C#N)C(=O)Nc1ccccc12 [Example 83]
IC50 [1]: < 0.1 µM | EC50 [2]: < 0.1 µM

CN(C(=O)[C@H](CC1CC1)NC(=O)NC1CC1)[C@@H](CC(C)(C)C)C(=O)N1C[C@]2(C[C@H]1C#N)C(=O)Nc1ccccc12 [Example 85]
IC50 [1]: < 0.1 µM | EC50 [2]: < 0.1 µM

CC(C)[C@H](NC(=O)OCc1ccccc1)C(=O)N[C@@H](CC(C)(C)C)C(=O)N1C[C@]2(C[C@H]1C#N)C(=O)Nc1ccccc12 [Example 86]
IC50 [1]: < 0.1 µM | EC50 [2]: 0.1 to 1 µM

CC(=O)N[C@H](C(=O)N[C@@H](CC(C)(C)C)C(=O)N1C[C@]2(C[C@H]1C#N)C(=O)Nc1ccccc12)C(C)C [Example 88]
IC50 [1]: 0.1 to 1 µM | EC50 [2]: 0.1 to 1 µM

CC(=O)N[C@@H](C(=O)N[C@@H](CC(C)(C)C)C(=O)N1C[C@]2(C[C@H]1C#N)C(=O)Nc1ccccc12)C(C)C [Example 89]
IC50 [1]: 0.1 to 1 µM | EC50 [2]: 0.1 to 1 µM

CC(C)[C@H](NC(=O)C(F)(F)F)C(=O)N[C@@H](CC(C)(C)C)C(=O)N1C[C@]2(C[C@H]1C#N)C(=O)Nc1ccccc12 [Example 90]
IC50 [1]: < 0.1 µM | EC50 [2]: 0.1 to 1 µM

CC(C)[C@@H](NC(=O)C(F)(F)F)C(=O)N[C@@H](CC(C)(C)C)C(=O)N1C[C@]2(C[C@H]1C#N)C(=O)Nc1ccccc12 [Example 91]
IC50 [1]: 0.1 to 1 µM | EC50 [2]: 0.1 to 1 µM

CC(C)[C@H](NC(=O)c1cc2c(F)cc(F)c(F)c2[nH]1)C(=O)N[C@@H](CC(C)(C)C)C(=O)N1C[C@]2(C[C@H]1C#N)C(=O)Nc1ccccc12 [Example 92]
IC50 [1]: < 0.1 µM | EC50 [2]: 0.1 to 1 µM

CC(C)[C@@H](NC(=O)c1cc2c(F)cc(F)c(F)c2[nH]1)C(=O)N[C@@H](CC(C)(C)C)C(=O)N1C[C@]2(C[C@H]1C#N)C(=O)Nc1ccccc12 [Example 93]
IC50 [1]: > 1 µM | EC50 [2]: > 1 µM

CC(C)(C)C[C@H](NC(=O)[C@H](CC1CC1)NC(=O)OCc1ccccc1)C(=O)N1C[C@]2(C[C@H]1C#N)C(=O)Nc1ccccc12 [Example 94]
IC50 [1]: < 0.1 µM | EC50 [2]: < 0.1 µM

CC(C)[C@H](NC(=O)c1ccc(F)c(F)c1)C(=O)N(C)[C@@H](CC(C)(C)C)C(=O)N1C[C@]2(C[C@H]1C#N)C(=O)Nc1ccccc12 [Example 107]
IC50 [1]: < 0.1 µM | EC50 [2]: 0.1 to 1 µM

CC(C)[C@H](NC(=O)c1cc(F)c(F)c(F)c1)C(=O)N(C)[C@@H](CC(C)(C)C)C(=O)N1C[C@]2(C[C@H]1C#N)C(=O)Nc1ccccc12 [Example 108]
IC50 [1]: < 0.1 µM | EC50 [2]: 0.1 to 1 µM

CC(C)[C@H](NC(=O)c1ccc2c(F)cc(F)cc2n1)C(=O)N(C)[C@@H](CC(C)(C)C)C(=O)N1C[C@]2(C[C@H]1C#N)C(=O)Nc1ccccc12 [Example 109]
IC50 [1]: < 0.1 µM | EC50 [2]: 0.1 to 1 µM

CC(C)[C@H](NC(=O)OCC1(c2ccccc2)CC1)C(=O)N(C)[C@@H](CC(C)(C)C)C(=O)N1C[C@]2(C[C@H]1C#N)C(=O)Nc1ccccc12 [Example 110]
IC50 [1]: < 0.1 µM | EC50 [2]: 0.1 to 1 µM

CC(C)[C@H](NC(=O)N1CCCCC1)C(=O)N(C)[C@@H](CC(C)(C)C)C(=O)N1C[C@]2(C[C@H]1C#N)C(=O)Nc1ccccc12 [Example 112]
IC50 [1]: < 0.1 µM | EC50 [2]: 0.1 to 1 µM

CC(=O)N[C@@H](Cc1cc(F)c(F)cc1F)C(=O)N(C)[C@@H](CC(C)(C)C)C(=O)N1C[C@]2(C[C@H]1C#N)C(=O)Nc1ccccc12 [Example 113]
IC50 [1]: < 0.1 µM | EC50 [2]: < 0.1 µM

CC(=O)N[C@H](Cc1cc(F)c(F)cc1F)C(=O)N(C)[C@@H](CC(C)(C)C)C(=O)N1C[C@]2(C[C@H]1C#N)C(=O)Nc1ccccc12 [Example 114]
IC50 [1]: < 0.1 µM | EC50 [2]: < 0.1 µM

CC(C)C[C@@H](C(=O)N1C[C@]2(C[C@H]1C#N)C(=O)Nc1ccccc12)N(C)C(=O)C1(NC(=O)OCc2ccccc2)CCCC1 [Example 115]
IC50 [1]: < 0.1 µM | EC50 [2]: 0.1 to 1 µM

CC(C)OC(=O)N[C@@H](CC1CC1)C(=O)N(C)[C@@H](CC(C)(C)C)C(=O)N1C[C@]2(C[C@H]1C#N)C(=O)Nc1ccccc12 [Example 121]
IC50 [1]: < 0.1 µM | EC50 [2]: < 0.1 µM

CN(C(=O)[C@H](CC1CC1)NC(=O)C1COC1)[C@@H](CC(C)(C)C)C(=O)N1C[C@]2(C[C@H]1C#N)C(=O)Nc1ccccc12 [Example 122]
IC50 [1]: < 0.1 µM | EC50 [2]: < 0.1 µM

COc1cc(C(=O)N[C@@H](CC2CC2)C(=O)N(C)[C@@H](CC(C)(C)C)C(=O)N2C[C@]3(C[C@H]2C#N)C(=O)Nc2ccccc23)cc2cn(C3CC3)nc12 [Example 123]
IC50 [1]: < 0.1 µM | EC50 [2]: 0.1 to 1 µM

CN(C(=O)[C@H](CC1CC1)NC(=O)c1cn(C2CC2)nn1)[C@@H](CC(C)(C)C)C(=O)N1C[C@]2(C[C@H]1C#N)C(=O)Nc1ccccc12 [Example 124]
IC50 [1]: < 0.1 µM | EC50 [2]: < 0.1 µM

C[C@H](NC(=O)C(F)(F)F)C(=O)N(C)[C@@H](CC(C)(C)C)C(=O)N1C[C@]2(C[C@H]1C#N)C(=O)Nc1ccccc12 [Example 128]
IC50 [1]: < 0.1 µM | EC50 [2]: < 0.1 µM

[2H]C([2H])([2H])N(C(=O)[C@H](CC1CC1)NC(=O)C(F)(F)F)[C@@H](CC1CC1)C(=O)N1C[C@]2(C[C@H]1C#N)C(=O)Nc1ccccc12 [Example 134]
IC50 [1]: < 0.1 µM | EC50 [2]: < 0.1 µM
